Experimental data from patent EP0835125B1, “CD4-DERIVED PEPTIDES THAT INHIBIT IMMUNE RESPONSES” (THOMAS JEFFERSON UNIVERSITY, priority 1995, dated 2004).
Where “and” joins values, the source holds several entries; their conditions need not be identical. Equal entries are not always repeated. Where two headings read alike, the source gives them in different places. Bridge positions count the residues as written; N and C are the ends. Peptide text beside a SMILES is read from it.

What was measured:
[1] = target: MHC, class II, gene products on Raji cells (human); assay: rosette assay, Raji cells (MHC class II) on CD4-transiently transfected COS-7 cells, peptide at 200 uM, blocks CD4/MHC class II interaction; independent assay 2 of 3
[2] = target: MHC, class II, gene products on Raji cells (human); assay: rosette assay, Cr51-labelled Raji cells (MHC class II) on stably T4-pMV7-transfected COS-1 cells (CD4), peptide at 200 uM
[3] = target: MHC, class II, gene products on Raji cells (human); assay: rosette assay, Raji cells (MHC class II) on CD4-transiently transfected COS-7 cells, peptide at 200 uM, blocks CD4/MHC class II interaction; independent assay 3 of 3
[4] = target: MHC, class II, gene products on Raji cells (human); assay: rosette assay, Raji cells (MHC class II) on CD4-transiently transfected COS-7 cells, peptide at 200 uM, blocks CD4/MHC class II interaction; independent assay 1 of 3
[5] = test system: interaction of CD4 and MHC, class II; assay: Rosetting of Cr51-labelled Raji cells to stably T4-pMV7-transfected COS-1 cells; assay type: cell-based, human; conditions: 200 µM
Description: In a second construct, the T4-pMV7 plasmid, which contains a Tn5 neo selectable marker, was introduced into Cos-1 cells by electroporation. Stably transfected cells were isolated by selection with G-418 and the resultant transformants expressed CD4.
Raji cells were labelled with Cr^51 and rosetted to the stably T4-pMV7-transfected COS-1 cells.

EAE = EAE inhibition in vivo, SJL EAE model, daily severity score on 0-5 scale; parameters: species or system mice; conditions: for effect on EAE in mice, in words: b73: 0.5 mg dose i.v. 12 days after immunization
Procedure: The C-C' loop peptides were initially tested for efficacy in the SJL EAE model. In untreated animals, a high incidence of disease was observed 15-22 days after two s.c. inoculations of 1 mg of crude murine spinal cord homogenate in complete Freund's adjuvant. The severity of the disease was scored daily using the established 0-5 scale that describes the level of ascending paresis, Korngold, R., et al., 1986, Immunogenetics 24:309-315. The level of the mean EAE severity grade of mice for the untreated control group reached a maximum of 2.0. […] Also shown are the results of groups of mice that received the rD-mPGPtide, a mimic of residues 86-104 of murine homolog of CD4, which was described in Jameson et al. 1994, Nature 368:744-746.

[6] = test system: interaction of CD4 and MHC, class II; assay: Rosetting of Raji cells and CD4-transiently transfected COS-7 cells, microscopic count; assay type: cell-based, human; conditions: 200 µM, three independent assays
Procedure: The cyclic peptide CNSNQIC (SEQ ID NO:45) at 200 µM was tested to determine if the peptide inhibited the interaction of CD4 and MHC, class II. The test was performed by rosetting Raji cells and CD4-transiently transfected COS-7 cells. See: Moebius, U. et al., 1992, Proc. Natl. Acad. Sci. 89:12008-12; Moebius, U., et al., 1993, Proc. Natl. Acad. Sci. 90:8259-63.
The sequence of human CD4 cDNA is given in Maddon, P.J. et al., 1985, CELL 42:93-104, which sequence is hereby incorporated by reference. […]
For transfection of COS-7 cells, a CD4-expression plasmid T4-pcDNA3, was constructed by subcloning the 3.0 Kb Eco R1 fragment of T4-pMV7 into the EcoRI site of the mammalian expression vector pcDNA3 (INVITROGEN). […] Rosette formation between Raji cells and transfected COS-7 cells was scored microscopically at 100-fold magnification. The number of rosette containing more than five Raji cells was counted in 10 random optical fields in each individual well; 300-400 rosettes per well were counted as the positive control for rosette formation without any inhibition in the absence of any chemicals. The inhibition activity for rosette formation for each chemical was determined by the ratio of the number of rosettes obtained in the presence of this chemical to the number of rosettes in the positive control. […]

[7] = test system: responder cell alloreactive proliferation (human T cell); conditions: for inhibition (suppressive effect on human T cell activation): 3 h, 100 µM; for activity in human MLR / human T cell proliferation in vitro, in words: in b95 the words describe the cyclic peptide relative to the linear peptides KNSNQI, KNSNQ, NSNQI (linear ones less active)
Procedure: For this assay, fresh peripheral blood lymphocytes from two different donors are co-cultured; the cells of one donor were irradiated and served as stimulators. Proliferation of these activated T cells was measured by measuring the incorporation of ^3H-thymidine at various timepoints.
For human MLR, 50 ml of whole blood was collected into anti-coagulant (ACD, acid citrate dextrose) containing tubes. In 50 ml conical tubes, 20 ml of blood was layered over 20 ml Ficoll 1077 (Sigma Chemical Co., St. Louis, MO) and centrifuged at 2000 rpm for 35-40 min at 15-20°C. Buffy coats and serum were collected in 3x volume of PBS centrifuged at 1500 rpm for 15 min at 15-20°C. Supernatants were discarded, cells were washed 2x in 50 ml PBS and resuspended in RPMI supplemented with 10% heat-inactivated (56°, 30 min) human serum (cat# H4522, Sigma), 50 IU/ml pen/strep and 2mM (1% of 200 mM stock) L-glutamine (both from BioWhitaker). Lymphocyte yield varied between 5-8x10^7.
In a 96-well flat bottom plate 1 x 10^5 responders were plated with 2 x 10^5 irradiated (3000 rad) simulators/well (added in 100 µl each), and incubated for 6, 7 or 8 days at 37°C, 7% CO2. Peptide analogues were added to quadruplicate wells, at a concentration of 100 µM (5 mg/ml stock) or titrations thereof, immediately after cells were plated. For radiolabelling, the cells were incubated with 1 µCi [^3H]TdR/well (25 µl) (diluted from 1mCi/ml stock, Amersham) for the final 6 hours of incubation. Cells were harvested using a fiberfilter cell harvester (e.g., Harvester 96, Tomtec) and counted in a Beta Counter of Beta plate reader (1205 BS Betaplate Liquid Scintillation Counter, Wallac) with scintillation fluid.

[8] = listed as CNSNQIC (SEQ ID NO:44)

| percent inhibition of rosettes [1] [%] | percent inhibition of rosetting [2] [%] | percent inhibition of rosettes [3] [%] | percent inhibition of rosettes [4] [%] | Compound | inhibition of rosetting [5] | maximum severity level (mean EAE severity grade) (EAE; 0.5 mg i.v. on day 12, 0-5 scale, untreated control group maximum 2.0) | effect on EAE in mice, in words (EAE) | effect on EAE in mice, in words (EAE; [8]) | inhibition of the rosettes [6] | inhibition (suppressive effect on human T cell activation) [7] [%] | activity in human MLR / human T cell proliferation in vitro, in words [7] | activity in human MLR / human T cell proliferation in vitro, in words [7, 8] |
| --- | --- | --- | --- | --- | --- | --- | --- | --- | --- | --- | --- | --- |
| 63 | > 75 | 51 | 57 | cyclic peptide CNSNQIC (SEQ ID NO:45) |  |  |  |  |  |  |  |  |
|  |  |  |  | CC[C@H](C)[C@@H]1NC(=O)[C@H](CCC(N)=O)NC(=O)[C@H](CC(N)=O)NC(=O)[C@H](CO)NC(=O)[C@H](CC(N)=O)NC(=O)[C@@H](N)CSSC[C@@H](C(=O)O)NC1=O [CNSNQIC (SEQ ID NO:45), CNSNQIC] (H-CNSNQIC-OH; disulfide 1-7 (inferred); N-terminus and C-terminus assumed) | greater than 75% | 1.0 | effective to ameliorate EAE | inhibitor of EAE in mice | 57% and 63% and 51% | 54.4 | significantly higher activity than the linear peptides | highly potent inhibitor of human T cell proliferation |
|  |  |  |  | CC[C@H](C)[C@H](NC(=O)[C@H](CCC(N)=O)NC(=O)[C@H](CC(N)=O)NC(=O)[C@H](CO)NC(=O)[C@H](CC(N)=O)NC(=O)[C@@H](N)CS)C(=O)N[C@@H](CS)C(=O)O [linear CNSNQIC, CNSNQIC] (H-CNSNQIC-OH) |  |  |  |  |  | 32.2 |  |  |
